# Assay results taken from patent US20070128217A1 (priority 2003, published 2007).
# Key:
# [1] = tested on: antibodies in sera from SARS patients (sera 1a, 1b, 2, 6, 37, 62, London, SARS-yellow, SARS-green); format: binding, human; parameters: Binding of serum 6 to linear peptides of protein X1 of SARS-CoV Urbani / Binding of serum 37 to linear peptides of protein X1 of SARS-CoV Urbani / Binding of serum 6 to looped/cyclic peptide (PEPSCAN-ELISA) / Binding of serum 37 to looped/cyclic peptide (PEPSCAN-ELISA) / Binding of serum 37 to looped/cyclic peptides of protein X1 of SARS-CoV Urbani / Binding of serum 6 to linear peptides of protein X2 / Binding of serum 37 to linear peptides of protein X2 / Binding of serum 37 to looped/cyclic peptides of protein X2 of SARS-CoV Urbani / Binding of serum 6 to linear peptides of protein M of SARS-CoV Urbani / Binding of serum 37 to linear peptides of protein M of SARS-CoV Urbani / Binding of serum 6 to looped/cyclic peptides of protein M of SARS-CoV Urbani / Binding of serum 37 to looped/cyclic peptides of protein M of SARS-CoV Urbani / Binding of serum 6 to linear peptides of protein X3 of SARS-CoV Urbani / Binding of serum 37 to linear peptides of protein X3 of SARS-CoV Urbani / Binding of serum 37 to looped/cyclic peptides of protein X3 of SARS-CoV Urbani / Binding of serum 6 to linear peptides of protein X4 of SARS-CoV Urbani / Binding of serum 37 to linear peptides of protein X4 of SARS-CoV Urbani / Binding of serum 37 to looped/cyclic peptides of protein X4 of SARS-CoV Urbani / Binding of serum 6 to linear peptides of protein X5 of SARS-CoV Urbani / Binding of serum 37 to linear peptides of protein X5 of SARS-CoV Urbani / Binding of serum 37 to looped/cyclic peptides of protein X5 of SARS-CoV Urbani / Binding of serum 6 to linear peptides of protein N of SARS-CoV Urbani / Binding of serum 37 to linear peptides of protein N of SARS-CoV Urbani / Binding of serum 6 to linear peptide (PEPSCAN-ELISA) / Binding of serum 1a to looped/cyclic peptides of protein N of SARS-CoV Urbani / Binding of serum 1b to looped/cyclic peptides of protein N of SARS-CoV Urbani / Binding of serum 2 to looped/cyclic peptides of protein N of SARS-CoV Urbani / Binding of serum 6 to looped/cyclic peptides of protein N of SARS-CoV Urbani / Binding of serum 37 to looped/cyclic peptides of protein N of SARS-CoV Urbani / Binding of serum 62 to looped/cyclic peptides of protein N of SARS-CoV Urbani / Binding of serum London to looped/cyclic peptides of protein N of SARS-CoV Urbani / Binding of serum SARS-green to looped/cyclic peptides of protein N of SARS-CoV Urbani: unit not given here
# [2] = tested on: control sera (pooled serum of ten healthy LUMC hospital workers; commercial negative donor pooled serum from the Dutch bloodbank); format: binding, human; parameters: Binding of Control serum LUMC to linear peptides / Binding of Control serum Blood-bank to linear peptides / Binding of Control serum LUMC to looped peptides / Binding of Control Serum Blood-Bank to Looped peptides / Binding of Control serum LUMC to linear peptides of the protein M of SARS-CoV Urbani / Binding of Control serum Blood-bank to linear peptides of the protein M of SARS-CoV Urbani / Binding of Control serum LUMC to looped peptides of the protein M of SARS-CoV Urbani / Binding of Control Serum Blood-Bank to Looped peptides of the protein M of SARS-CoV Urbani: unit not given here
# [3] = tested on: rabbit serum obtained by immunizing a rabbit with the SARS-CoV strain Frankfurt 1; format: binding; parameters: Binding of a rabbit serum to linear peptides / Binding of a rabbit serum to looped peptides / Rabbit serum linear peptides / Rabbit serum looped peptides / Binding of a rabbit serum to linear peptides of protein N of SARS-CoV Urbani (Rabbit serum linear peptides) / Binding of a rabbit serum to looped/cyclic peptides of protein N of SARS-CoV Urbani (Rabbit serum looped peptides): unit not given here
sequence,measurement,setting,value
FLWLLWPVTLACFVL,Binding of serum 1a to linear peptides of protein M of SARS-CoV Urbani,[1],0.6
same,Binding of serum 1a to looped/cyclic peptides of protein M of SARS-CoV Urbani,[1],0.6
same,Binding of serum 1b to linear peptides of protein M of SARS-CoV Urbani,[1],0.4
same,Binding of serum 1b to looped/cyclic peptides of protein M of SARS-CoV Urbani,[1],0.5
same,Binding of serum 2 to linear peptides of protein M of SARS-CoV Urbani,[1],0.5
same,Binding of serum 2 to looped/cyclic peptides of protein M of SARS-CoV Urbani,[1],0.6
same,Binding of serum 6 to linear peptides of protein M of SARS-CoV Urbani,[1],0.3
same,Binding of serum 6 to looped/cyclic peptides of protein M of SARS-CoV Urbani,[1],0.4
same,Binding of serum 37 to linear peptides of protein M of SARS-CoV Urbani,[1],0.6
same,Binding of serum 37 to looped/cyclic peptides of protein M of SARS-CoV Urbani,[1],0.6
same,Binding of serum 62 to linear peptides of protein M of SARS-CoV Urbani,[1],0.7
same,Binding of serum 62 to looped/cyclic peptides of protein M of SARS-CoV Urbani,[1],0.6
same,Binding of serum London to linear peptides of protein M of SARS-CoV Urbani,[1],0.4
same,Binding of serum London to looped/cyclic peptides of protein M of SARS-CoV Urbani,[1],0.2
same,Binding of serum SARS-green to linear peptides of protein M of SARS-CoV Urbani,[1],0.2
same,Binding of serum SARS-green to looped/cyclic peptides of protein M of SARS-CoV Urbani,[1],0.2
same,Binding of serum SARS-yellow to linear peptides of protein M of SARS-CoV Urbani,[1],0.1
same,Binding of serum SARS-yellow to looped/cyclic peptides of protein M of SARS-CoV Urbani,[1],0.7
same,Binding of Control Serum Blood-Bank to Looped peptides of the protein M of SARS-CoV Urbani,[2],0.5
same,Binding of Control serum Blood-bank to linear peptides of the protein M of SARS-CoV Urbani,[2],0.4
same,Binding of Control serum LUMC to linear peptides of the protein M of SARS-CoV Urbani,[2],0.2
same,Binding of Control serum LUMC to looped peptides of the protein M of SARS-CoV Urbani,[2],0.7
same,Rabbit serum linear peptides,[3],0.3
same,Rabbit serum looped peptides,[3],0.4
ACIVGLMWLSYFVAS,Binding of serum 1a to linear peptides of protein M of SARS-CoV Urbani,[1],0.7
same,Binding of serum 1a to looped/cyclic peptides of protein M of SARS-CoV Urbani,[1],0.6
same,Binding of serum 1b to linear peptides of protein M of SARS-CoV Urbani,[1],0.5
same,Binding of serum 1b to looped/cyclic peptides of protein M of SARS-CoV Urbani,[1],0.3
same,Binding of serum 2 to linear peptides of protein M of SARS-CoV Urbani,[1],0.5
same,Binding of serum 2 to looped/cyclic peptides of protein M of SARS-CoV Urbani,[1],0.5
same,Binding of serum 6 to linear peptides of protein M of SARS-CoV Urbani,[1],0.4
same,Binding of serum 6 to looped/cyclic peptides of protein M of SARS-CoV Urbani,[1],0.6
same,Binding of serum 37 to linear peptides of protein M of SARS-CoV Urbani,[1],0.6
same,Binding of serum 37 to looped/cyclic peptides of protein M of SARS-CoV Urbani,[1],0.5
same,Binding of serum 62 to linear peptides of protein M of SARS-CoV Urbani,[1],0.7
same,Binding of serum 62 to looped/cyclic peptides of protein M of SARS-CoV Urbani,[1],0.4
same,Binding of serum London to linear peptides of protein M of SARS-CoV Urbani,[1],0.3
same,Binding of serum London to looped/cyclic peptides of protein M of SARS-CoV Urbani,[1],0.2
same,Binding of serum SARS-green to linear peptides of protein M of SARS-CoV Urbani,[1],0.2
same,Binding of serum SARS-green to looped/cyclic peptides of protein M of SARS-CoV Urbani,[1],0.2
same,Binding of serum SARS-yellow to linear peptides of protein M of SARS-CoV Urbani,[1],0.1
same,Binding of serum SARS-yellow to looped/cyclic peptides of protein M of SARS-CoV Urbani,[1],0.4
same,Binding of Control Serum Blood-Bank to Looped peptides of the protein M of SARS-CoV Urbani,[2],0.6
same,Binding of Control serum Blood-bank to linear peptides of the protein M of SARS-CoV Urbani,[2],0.6
same,Binding of Control serum LUMC to linear peptides of the protein M of SARS-CoV Urbani,[2],0.3
same,Binding of Control serum LUMC to looped peptides of the protein M of SARS-CoV Urbani,[2],0.5
same,Rabbit serum linear peptides,[3],0.3
same,Rabbit serum looped peptides,[3],0.8
LDVIISSIVRQLFKP,Binding of serum 1a to linear peptides of protein X3 of SARS-CoV Urbani,[1],0.8
same,Binding of serum 1a to looped/cyclic peptides of protein X3 of SARS-CoV Urbani,[1],0.6
same,Binding of serum 1b to linear peptides of protein X3 of SARS-CoV Urbani,[1],0.3
same,Binding of serum 1b to looped/cyclic peptides of protein X3 of SARS-CoV Urbani,[1],0.3
same,Binding of serum 2 to linear peptides of protein X3 of SARS-CoV Urbani,[1],0.9
same,Binding of serum 2 to looped/cyclic peptides of protein X3 of SARS-CoV Urbani,[1],0.5
same,Binding of serum 6 to linear peptides of protein X3 of SARS-CoV Urbani,[1],0.3
same,Binding of serum 6 to looped/cyclic peptides of protein X3 of SARS-CoV Urbani,[1],0.4
same,Binding of serum 37 to linear peptides of protein X3 of SARS-CoV Urbani,[1],0.7
same,Binding of serum 37 to looped/cyclic peptides of protein X3 of SARS-CoV Urbani,[1],0.5
same,Binding of serum 62 to linear peptides of protein X3 of SARS-CoV Urbani,[1],0.6
same,Binding of serum 62 to looped/cyclic peptides of protein X3 of SARS-CoV Urbani,[1],0.5
same,Binding of serum London to linear peptides of protein X3 of SARS-CoV Urbani,[1],0.5
same,Binding of serum London to looped/cyclic peptides of protein X3 of SARS-CoV Urbani,[1],0.2
same,Binding of serum SARS-green to linear peptides of protein X3 of SARS-CoV Urbani,[1],0.4
same,Binding of serum SARS-green to looped/cyclic peptides of protein X3 of SARS-CoV Urbani,[1],0.2
same,Binding of serum SARS-yellow to linear peptides of protein X3 of SARS-CoV Urbani,[1],0.1
same,Binding of serum SARS-yellow to looped/cyclic peptides of protein X3 of SARS-CoV Urbani,[1],0.3
same,Binding of Control Serum Blood-Bank to Looped peptides of the protein X3 of SARS-CoV Urbani,[2],0.7
same,Binding of Control serum Blood-bank to linear peptides of the protein X3 of SARS-CoV Urbani,[2],0.6
same,Binding of Control serum LUMC to linear peptides of the protein X3 of SARS-CoV Urbani,[2],0.4
same,Binding of Control serum LUMC to looped peptides of the protein X3 of SARS-CoV Urbani,[2],0.8
same,Rabbit serum linear peptides,[3],0.2
same,Rabbit serum looped peptides,[3],0.0
